Measured values from paper PMC10974930, “Synthesis and Antioxidant Activities of Novel Pyrimidine Acrylamides as Inhibitors of Lipoxygenase: Molecular Modeling and In Silico Physicochemical Studies” (Molecules, 2024).

Target: T1, soybean lipoxygenase (Glycine max, UniProt P08170)
T1 construct: gene LOX1.1
T1 sequence (P08170 1-839): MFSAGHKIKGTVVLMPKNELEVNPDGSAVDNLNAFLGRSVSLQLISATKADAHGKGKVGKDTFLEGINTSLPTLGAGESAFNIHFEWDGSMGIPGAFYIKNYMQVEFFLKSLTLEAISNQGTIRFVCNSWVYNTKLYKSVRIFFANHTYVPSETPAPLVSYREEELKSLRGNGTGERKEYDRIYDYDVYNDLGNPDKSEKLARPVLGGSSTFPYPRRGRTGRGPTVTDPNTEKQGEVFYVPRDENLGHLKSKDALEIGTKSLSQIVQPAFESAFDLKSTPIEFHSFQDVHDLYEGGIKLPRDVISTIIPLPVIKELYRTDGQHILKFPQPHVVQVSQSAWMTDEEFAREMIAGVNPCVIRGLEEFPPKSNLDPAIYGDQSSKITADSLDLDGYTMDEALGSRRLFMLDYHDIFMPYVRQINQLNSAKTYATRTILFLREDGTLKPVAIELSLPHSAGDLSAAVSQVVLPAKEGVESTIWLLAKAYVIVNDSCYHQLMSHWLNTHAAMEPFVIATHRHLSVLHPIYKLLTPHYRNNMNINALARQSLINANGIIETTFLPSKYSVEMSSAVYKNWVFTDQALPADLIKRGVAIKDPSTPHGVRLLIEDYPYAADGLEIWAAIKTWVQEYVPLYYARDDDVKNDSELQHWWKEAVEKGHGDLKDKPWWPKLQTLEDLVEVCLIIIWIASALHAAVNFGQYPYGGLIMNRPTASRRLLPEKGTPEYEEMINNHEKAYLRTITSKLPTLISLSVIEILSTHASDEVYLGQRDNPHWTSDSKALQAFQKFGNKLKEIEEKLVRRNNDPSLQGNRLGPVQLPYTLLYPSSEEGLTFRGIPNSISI
Assay: UV assay at […] nm of sodium linoleate oxidation by soybean lipoxygenase (Sigma)
Format: biochemical
Details: read-out: % Inhibition of LOX 100 μM or IC50 (μM) *

## O=Nc1c(NC(=O)/C=C/c2cccs2)[nH]c(N2CCCCC2)nc1=O [compound 5, (E)-N-(5-nitroso-6-oxo-2-(piperidin-1-yl)-3,6-dihydropyrimidin-4-yl)-3-(thiophen-2-yl)acrylamide]
  IC50: 10.7 µM

## O=Nc1c(NC(=O)/C=C/c2cccc3ccccc23)[nH]c(N2CCCCC2)nc1=O [compound 9, (E)-3-(naphthalen-1-yl)-N-(5-nitroso-6-oxo-2-(piperidin-1-yl)-3,6-dihydropyrimidin-4-yl)acrylamide]
  IC50: 1.1 µM
